EP4796538A1, “NOVEL QUINOXALINE COMPOUNDS, MANUFACTURING METHOD THEREOF, AND USES THEREOF” (Gachon University of Industry-Academic Cooperation …, priority 2023, dated 2025)
Where two headings read alike, the source gives them in different places.

How the values were obtained:
RET (G810S/M918T) = biological target: T1, RET (G810S/M918T) (Homo sapiens, UniProt P07949, G810S/M918T); experiment: Kinase panel inhibition, radiolabeled [γ-33P] ATP (Reaction Biology Corp); assay type: biochemical; conditions: compound at 10 uM, ATP 1 µM
T1 construct: purchased Reaction Biology Corp
T1 sequence (P07949 29-1114 G810S/M918T): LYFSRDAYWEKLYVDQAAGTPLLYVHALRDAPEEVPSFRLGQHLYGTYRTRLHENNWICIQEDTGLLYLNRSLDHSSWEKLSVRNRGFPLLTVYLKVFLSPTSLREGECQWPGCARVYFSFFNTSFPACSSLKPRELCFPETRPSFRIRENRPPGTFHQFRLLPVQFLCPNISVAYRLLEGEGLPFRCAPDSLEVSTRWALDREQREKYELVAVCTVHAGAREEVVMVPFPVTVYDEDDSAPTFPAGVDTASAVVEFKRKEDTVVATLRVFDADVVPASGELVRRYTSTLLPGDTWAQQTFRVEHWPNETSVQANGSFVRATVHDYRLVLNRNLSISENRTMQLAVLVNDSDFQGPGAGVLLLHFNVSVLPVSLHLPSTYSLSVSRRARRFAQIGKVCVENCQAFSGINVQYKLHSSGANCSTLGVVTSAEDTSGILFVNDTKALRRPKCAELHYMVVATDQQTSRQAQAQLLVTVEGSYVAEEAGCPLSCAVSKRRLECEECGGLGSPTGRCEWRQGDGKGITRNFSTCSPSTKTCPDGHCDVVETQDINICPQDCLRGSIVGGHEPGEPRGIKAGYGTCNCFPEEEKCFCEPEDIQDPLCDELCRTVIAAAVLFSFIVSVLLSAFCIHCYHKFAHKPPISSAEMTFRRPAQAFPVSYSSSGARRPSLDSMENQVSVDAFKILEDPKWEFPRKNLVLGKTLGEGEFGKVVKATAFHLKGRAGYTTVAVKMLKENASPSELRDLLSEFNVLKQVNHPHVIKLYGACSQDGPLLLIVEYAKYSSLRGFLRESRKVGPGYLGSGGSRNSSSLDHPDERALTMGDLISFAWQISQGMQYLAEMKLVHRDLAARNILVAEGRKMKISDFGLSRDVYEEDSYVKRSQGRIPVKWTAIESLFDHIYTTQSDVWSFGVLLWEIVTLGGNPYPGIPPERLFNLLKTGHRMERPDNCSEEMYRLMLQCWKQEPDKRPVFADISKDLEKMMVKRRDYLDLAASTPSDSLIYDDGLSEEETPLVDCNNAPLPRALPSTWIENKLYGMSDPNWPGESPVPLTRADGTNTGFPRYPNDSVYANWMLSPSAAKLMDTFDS

RET(V804M) = biological target: T2, RET(V804M) (Homo sapiens, UniProt P07949, V804M); experiment: as above; assay type: biochemical; conditions: compound at 0.1 uM; ATP 10 µM; read-out: % Enzyme Activity (relative to DMSO controls) V804M
T2 construct: purchased Reaction Biology Corp
T2 sequence (P07949 29-1114 V804M): as the sequence (P07949 29-1114 G810S/M918T) above, with V776M, S782G, T890M counted along it

RET(G810R) = biological target: T3, RET(G810R) (Homo sapiens, UniProt P07949, G810R); experiment: as above; assay type: biochemical; conditions: compound at 0.1 uM; ATP 10 µM; read-out: % Enzyme Activity (relative to DMSO controls) G810R
T3 construct: purchased Reaction Biology Corp
T3 sequence (P07949 29-1114 G810R): as the sequence (P07949 29-1114 G810S/M918T) above, with S782R, T890M counted along it

RET-CCDC6 (PTC1) = biological target: T4, RET-CCDC6 (PTC1) (Homo sapiens, UniProt P07949); experiment: as above; assay type: biochemical; conditions: compound at 10 uM, ATP 1 µM
T4 construct: purchased Reaction Biology Corp
T4 sequence (P07949 whole entry, looked up): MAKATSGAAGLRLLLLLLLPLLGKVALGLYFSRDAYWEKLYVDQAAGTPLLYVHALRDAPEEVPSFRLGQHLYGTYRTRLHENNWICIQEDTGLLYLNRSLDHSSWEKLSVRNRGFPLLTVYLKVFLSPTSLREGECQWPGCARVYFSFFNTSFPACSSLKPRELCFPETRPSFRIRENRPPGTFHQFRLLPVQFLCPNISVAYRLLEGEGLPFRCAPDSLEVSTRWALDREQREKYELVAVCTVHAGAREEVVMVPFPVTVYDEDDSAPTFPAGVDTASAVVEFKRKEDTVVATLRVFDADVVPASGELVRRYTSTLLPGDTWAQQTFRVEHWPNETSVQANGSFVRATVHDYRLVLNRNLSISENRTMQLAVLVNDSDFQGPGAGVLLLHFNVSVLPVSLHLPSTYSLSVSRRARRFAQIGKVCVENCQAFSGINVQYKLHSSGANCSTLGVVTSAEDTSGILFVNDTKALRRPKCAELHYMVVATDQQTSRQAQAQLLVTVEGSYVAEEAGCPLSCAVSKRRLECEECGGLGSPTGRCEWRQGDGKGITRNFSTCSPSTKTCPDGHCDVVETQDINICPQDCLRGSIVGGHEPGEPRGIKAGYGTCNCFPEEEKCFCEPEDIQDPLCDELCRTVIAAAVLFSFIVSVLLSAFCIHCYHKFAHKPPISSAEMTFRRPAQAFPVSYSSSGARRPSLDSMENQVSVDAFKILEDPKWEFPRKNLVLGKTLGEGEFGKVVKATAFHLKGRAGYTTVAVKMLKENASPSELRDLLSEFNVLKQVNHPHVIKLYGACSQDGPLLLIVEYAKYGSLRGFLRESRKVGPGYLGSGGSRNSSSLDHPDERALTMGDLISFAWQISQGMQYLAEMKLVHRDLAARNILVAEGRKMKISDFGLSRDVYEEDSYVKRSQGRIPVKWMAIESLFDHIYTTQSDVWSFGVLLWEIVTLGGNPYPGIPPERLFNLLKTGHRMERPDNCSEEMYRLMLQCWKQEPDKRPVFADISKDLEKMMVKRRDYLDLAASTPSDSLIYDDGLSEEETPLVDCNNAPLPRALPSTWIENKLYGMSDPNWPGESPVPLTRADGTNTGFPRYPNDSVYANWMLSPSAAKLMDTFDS

BaF3-RET(V804M) = experiment: Cell proliferation inhibition (GI50), Cell Counting Kit-8, Ba/F3 cell line; assay type: cell-based, rodent; conditions: Mus musculus, BaF3; 72 hours incubation; Cell Counting Kit-8; read-out: GI50 of BaF3-RET(V804M)
Procedure: To evaluate the inhibitory activity of the compounds represented by Formula I or Formula IV according to the present invention against RET mutation-driven cell growth in the Ba/F3 cell line and against cell growth in the non-small cell lung cancer cell line A-549, the following experiment was performed.
Each cell line was seeded in a 96-well plate at 1×10^4 cells/90 µL/well, and 10 µL/well of culture medium containing each example and intermediate compound or DMSO control at 9 concentrations (1 nM to 100 µM) prepared by 3-fold serial dilutions was added to achieve a final concentration of 0 to 100 µM, followed by incubation for 72 hours in a 37°C, 5% CO2 incubator. After 72 hours of incubation, the compound-treated plates were removed, and Cell Counting Kit-8 solution was added at 10 µL/well and mixed well. The plates were then incubated for 2 hours in a CO2 incubator at 37°C, and the absorbance was measured at 450 nm using a microplate reader.
In addition, the data were expressed as a percentage relative to vehicle-treated cells, and GI50 values were calculated using GraphPad Prism 8.0 (GraphPad Software Inc., San Diego), and the results are shown in Table 8 below. As a control compound, ponatinib, a known RET inhibitor, was treated to calculate the GI50 values.

A-549 = experiment: Cell proliferation inhibition, Cell Counting Kit-8, non-small cell lung cancer cell line; assay type: cell-based; conditions: A-549 cell line; 72 hours incubation; test concentration not given
RET(V804M)-KIF5B = biological target: T5, RET(V804M)-KIF5B (Homo sapiens, UniProt P07949, V804M); experiment: Kinase panel inhibition, radiolabeled [γ-33P] ATP (Reaction Biology Corp); assay type: biochemical; conditions: compound at 0.1 uM; ATP 10 µM; read-out: % Enzyme Activity (relative to DMSO controls) RET (V804M )-KIF5B
T5 sequence (P07949 713-1114 V804M): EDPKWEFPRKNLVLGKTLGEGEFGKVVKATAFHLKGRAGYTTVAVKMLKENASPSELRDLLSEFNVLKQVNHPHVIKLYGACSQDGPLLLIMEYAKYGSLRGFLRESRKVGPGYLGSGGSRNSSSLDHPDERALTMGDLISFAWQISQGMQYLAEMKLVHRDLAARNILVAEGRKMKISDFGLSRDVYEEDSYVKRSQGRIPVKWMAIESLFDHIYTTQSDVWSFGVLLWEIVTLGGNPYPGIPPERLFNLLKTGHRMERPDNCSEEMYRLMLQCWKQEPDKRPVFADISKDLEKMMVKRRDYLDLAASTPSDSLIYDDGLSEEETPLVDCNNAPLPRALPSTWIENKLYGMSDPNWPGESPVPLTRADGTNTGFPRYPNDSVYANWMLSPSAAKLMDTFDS
T5 sequence (P33176 2-575 partner): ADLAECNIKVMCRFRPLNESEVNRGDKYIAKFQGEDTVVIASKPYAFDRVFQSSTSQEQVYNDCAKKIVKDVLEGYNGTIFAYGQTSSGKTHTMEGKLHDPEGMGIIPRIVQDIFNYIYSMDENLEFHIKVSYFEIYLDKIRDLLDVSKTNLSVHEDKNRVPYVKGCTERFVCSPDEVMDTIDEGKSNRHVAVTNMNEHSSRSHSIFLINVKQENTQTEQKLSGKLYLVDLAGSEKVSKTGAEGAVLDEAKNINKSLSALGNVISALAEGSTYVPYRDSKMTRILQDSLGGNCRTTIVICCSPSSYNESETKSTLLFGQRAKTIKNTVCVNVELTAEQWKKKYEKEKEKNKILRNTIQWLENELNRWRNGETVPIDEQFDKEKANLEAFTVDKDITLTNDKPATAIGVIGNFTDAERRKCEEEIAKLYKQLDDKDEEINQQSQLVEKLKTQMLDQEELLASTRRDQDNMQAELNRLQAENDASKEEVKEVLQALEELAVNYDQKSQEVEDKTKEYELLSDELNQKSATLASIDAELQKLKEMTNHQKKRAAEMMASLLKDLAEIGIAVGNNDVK

[1] = Data 1, read-out: % Enzyme Activity (relative to DMSO controls) RET (G810S/M918T) Data 1
[2] = Data 2, read-out: % Enzyme Activity (relative to DMSO controls) RET (G810S/M918T) Data 2
[3] = Data 1, read-out: % Enzyme Activity (relative to DMSO controls) RET-CCDC6 (PTC1) Data 1
[4] = Data 2, read-out: % Enzyme Activity (relative to DMSO controls) RET-CCDC6 (PTC1) Data 2

| remaining activity at 10 µM (RET (G810S/M918T); [1]) | remaining activity at 10 µM (RET (G810S/M918T); [2]) | remaining activity at 0.1 µM (RET(V804M)) | remaining activity at 0.1 µM (RET(G810R)) | remaining activity at 10 µM (RET-CCDC6 (PTC1); [3]) | remaining activity at 10 µM (RET-CCDC6 (PTC1); [4]) | GI50 (BaF3-RET(V804M)) | remaining activity at 0.1 µM (RET(V804M)-KIF5B) | SMILES | Cell Proliferation (% of control) (A-549) |
| --- | --- | --- | --- | --- | --- | --- | --- | --- | --- |
| 2.65% | 0.69% | 2.27% | 59.9% | 1.25% | 1.01% | 1060 nM | 5.5% | CCNc1cc(-c2ccc(N3CC[C@H](NC(=O)c4ccccc4F)C3)nc2)c2nccnc2c1 [Example 12, (S)-N-(1-(5-(7-(ethylamino)quinoxalin-5-yl)pyridin-2-yl)pyrrolidin-3-yl)-2-fluorobenzamide] | 41.67% |
| -0.84% | -0.85% | – | 56% | 1.36% | 1.07% | 2120 nM | – | CNc1cc(-c2ccc(N3CC[C@H](NC(=O)c4ccccc4F)C3)nc2)c2nccnc2c1 [Example 11, (S)-2-fluoro-N-(1-(5-(7-(methylamino)quinoxalin-5-yl)pyridin-2-yl)pyrrolidin-3-yl)benzamide] | 20.80% |
